Results on three compounds are retold here after patent publication US20110300222A1, “LUMINESCENT POROUS SILICON NANOPARTICLES, METHODS OF MAKING AND USING SAME” (THE REGENTS OF THE UNIVERSITY OF CALIFORNIA, priority 2009, published 2011).

The conditions of data set [1]: in ethanol; cited from earlier work.
For data set [2] the following is noted: 25° C.; cited from earlier work.
Data set [3] in a line: In vivo toxicity (body mass, histology of kidney, liver, spleen). The note with it: mice n=3, 2 mgDOX/kg i.v., period of 3 weeks. The arrangement: species or system mouse. Here is the method: In vivo degradation, toxicity, and circulation. All animal work was performed in accordance with the institutional animal protocol guidelines in place at the Burnham Institute for Medical Research, and it was reviewed and approved by the Institute's Animal Research Committee. […] For in vivo degradation studies, the mice were sacrificed 1 day, 1 week and 4 weeks after injection, and the brain, heart, kidney, liver, lung, and spleen were collected. The tissues were weighed, digested, and then analyzed for silicon content using ICP-OES. For the in vivo toxicity studies, the mass of each mouse was monitored for 4 weeks after injection and compared with control mice (PBS-injected). The sections of kidney, liver, and spleen tissues harvested from the mice 1 day and 4 weeks after injection were stained with haematoxylin and eosin and then examined by a pathologist.
To examine preliminary in vivo toxicity, body mass of the mice was monitored every 3 days over a period of 3 weeks.

Data set [4] can be described thus: Biodistribution of DOX in mouse organs (DOX fluorescence). The class given is in vivo. Particulars: mice n=3, 24 h after single i.v. injection, 2 mgDOX/kg. Here is the method: To determine biodistribution of free DOX and DOX-LPSiNP in mouse, the organs (liver, spleen, kidney, lung, heart, and brain) were collected 24 h after injection, weighed, homogenized in 1.5 mL of 0.3 M HCl 70% ethanol solution, and further incubated in the same solution overnight to extract DOX molecules from the organs and DOX-LPSiNP. The homogenized solution was spun down at 10,000 rpm for 10 min and the supernatant was only used to measure the DOX fluorescence. The DOX fluorescence (λex=480nm and λem=590 nm) in each tissue was quantified as % injected dose (% ID) per gram of wet tissue.

In the case of `O=C(O)c1ccccc1C1=c2cc3c4c(c2Oc2c1cc1c5c2CCCN5CCC1)CCC[N+]=4CCC3.[Cl-]` [Rhodamine 101], the “quantum yield of standard” value in data set [1] is given as 100%.

For orientation: pKa means the pH at which an ionisable group is half protonated. With `OB(O)O` [boric acid], in data set [2], the pKa is recorded as 9.14.

As for `COc1cccc2c1C(=O)c1c(O)c3c(c(O)c1C2=O)C[C@@](O)(C(=O)CO)C[C@@H]3O[C@H]1C[C@H](N)[C@H](O)[C@H](C)O1` [free DOX, doxorubicin], in data set [3], the “body mass (weight) change vs PBS control” value is “no statistically significant difference”. In data set [4], the “biodistribution of DOX” value is “accumulated in kidney, lung, and heart”.
